This data set is described as follows: stability in the manufacture of pharmaceutical compositions. The class given is physicochemical. Conditions: monohydrate form; qualitative statement, no test described.

Each structure is given as a SMILES string.

Turning to `CNC(=O)c1cc(Oc2ccc(NC(=O)Nc3ccc(Cl)c(C(F)(F)F)c3)c(F)c2)ccn1` [compound of the formula (II), 4-[4-({[4-chloro-3-(trifluoromethyl)phenyl]carbamoyl}amino)-3-fluorophenoxy]-N-methylpyridine-2-carboxamide monohydrate], the “stability in the manufacture of pharmaceutical compositions” value is “high stability”.
